Results published in ChEMBL document CHEMBL6092152, “Overview of PRMT1 modulators: Inhibitors and degraders” (Eur J Med Chem, 2024).
*1 amine or outer side, *2 acyl side, *3 side chain or, on linkers, in order; H or OH if unused. Where a SMILES comes first, the peptide text is derived from it. [ ]: non-standard residue; d: D form. X2 = N=C(NCCC[C@H](N[*:1])C(=O)[*:2])NCCC[C@H]1O[C@@H](n2cnc3c(N)ncnc32)[C@H](O)[C@@H]1O; Gly(N-(CH2)3-guanidino) = N=C(N)NCCCNCC(=O)O; X1 = N=C(CCl)NCCCN(CC(=O)[*:2])[*:1]; Gly(N-CH2CH2OH) = O=C(O)CNCCO; Nleu = CC(C)CNCC(=O)O; Nlys = NCCCCNCC(=O)O; Sar = CNCC(=O)O

How the values were obtained:
MDA-MB-468 = assay: Cytotoxicity against human MDA-MB-468 cells assessed as reduction in cell viability incubated for 72 hrs by cell-titer blue assay; format: functional, cell-based; conditions: MDA-MB-468, 72 h
[1] = target: T1, Protein arginine N-methyltransferase 1 (Homo sapiens, UniProt Q99873); assay: Inhibition of human PRMT1 assessed as methyltransferase activity using Histone H4 /H4 (1-15)-Biotin as substrate
T1 sequence (Q99873 whole entry): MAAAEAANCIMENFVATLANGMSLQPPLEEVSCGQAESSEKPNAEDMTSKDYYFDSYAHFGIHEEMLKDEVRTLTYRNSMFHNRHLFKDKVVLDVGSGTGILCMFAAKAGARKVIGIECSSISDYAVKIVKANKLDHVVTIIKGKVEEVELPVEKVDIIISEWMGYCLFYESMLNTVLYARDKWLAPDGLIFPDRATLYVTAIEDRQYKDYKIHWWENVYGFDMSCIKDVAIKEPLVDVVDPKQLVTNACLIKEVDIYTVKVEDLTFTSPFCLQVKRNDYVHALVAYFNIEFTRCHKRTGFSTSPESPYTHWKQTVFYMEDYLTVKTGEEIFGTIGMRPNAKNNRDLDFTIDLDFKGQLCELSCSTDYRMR

HCT-116 = assay: Cytotoxicity against human HCT-116 cells assessed as reduction in cell viability; format: functional, cell-based
[2] = target: Protein arginine N-methyltransferase 6 (Homo sapiens, UniProt Q96LA8); assay: Inhibition of PRMT6 (unknown origin)
Chain of Protein arginine N-methyltransferase 6 (Q96LA8 whole entry): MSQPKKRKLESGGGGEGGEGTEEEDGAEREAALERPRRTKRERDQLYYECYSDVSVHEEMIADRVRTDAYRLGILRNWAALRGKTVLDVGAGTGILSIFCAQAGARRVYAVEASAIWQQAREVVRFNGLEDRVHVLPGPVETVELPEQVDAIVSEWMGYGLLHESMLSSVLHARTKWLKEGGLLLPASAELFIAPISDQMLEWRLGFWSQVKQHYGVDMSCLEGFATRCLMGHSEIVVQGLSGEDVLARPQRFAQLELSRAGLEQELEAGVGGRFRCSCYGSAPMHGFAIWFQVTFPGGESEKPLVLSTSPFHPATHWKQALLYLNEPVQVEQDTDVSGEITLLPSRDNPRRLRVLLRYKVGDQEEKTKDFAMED

[3] = target: T1, Protein arginine N-methyltransferase 1; assay: Inhibition of PRMT1 (unknown origin)
[4] = target: Protein arginine N-methyltransferase 5 (Homo sapiens, UniProt O14744); assay: Inhibition of PRMT5 (unknown origin)
Chain of Protein arginine N-methyltransferase 5 (O14744 whole entry): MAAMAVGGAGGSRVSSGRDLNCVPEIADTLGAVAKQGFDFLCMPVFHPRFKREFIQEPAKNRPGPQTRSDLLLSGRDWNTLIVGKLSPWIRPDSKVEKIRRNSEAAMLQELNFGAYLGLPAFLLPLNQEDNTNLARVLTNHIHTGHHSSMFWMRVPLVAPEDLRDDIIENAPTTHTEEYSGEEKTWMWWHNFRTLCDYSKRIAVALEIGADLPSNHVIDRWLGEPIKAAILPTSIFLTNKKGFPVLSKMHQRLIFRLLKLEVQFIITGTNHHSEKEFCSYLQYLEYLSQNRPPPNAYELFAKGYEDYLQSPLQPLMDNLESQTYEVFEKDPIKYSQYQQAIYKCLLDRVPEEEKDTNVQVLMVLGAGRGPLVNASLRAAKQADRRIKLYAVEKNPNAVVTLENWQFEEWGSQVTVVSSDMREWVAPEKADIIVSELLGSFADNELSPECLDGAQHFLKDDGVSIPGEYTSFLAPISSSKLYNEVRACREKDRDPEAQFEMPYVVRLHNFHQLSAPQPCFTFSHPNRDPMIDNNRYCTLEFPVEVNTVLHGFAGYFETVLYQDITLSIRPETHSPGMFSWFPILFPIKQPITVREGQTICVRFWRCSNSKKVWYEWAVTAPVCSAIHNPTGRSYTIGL

[5] = target: T2, Protein arginine N-methyltransferase 7 (Homo sapiens, UniProt Q9NVM4); assay: Inhibition of PRMT7 (unknown origin)
T2 sequence (Q9NVM4 whole entry): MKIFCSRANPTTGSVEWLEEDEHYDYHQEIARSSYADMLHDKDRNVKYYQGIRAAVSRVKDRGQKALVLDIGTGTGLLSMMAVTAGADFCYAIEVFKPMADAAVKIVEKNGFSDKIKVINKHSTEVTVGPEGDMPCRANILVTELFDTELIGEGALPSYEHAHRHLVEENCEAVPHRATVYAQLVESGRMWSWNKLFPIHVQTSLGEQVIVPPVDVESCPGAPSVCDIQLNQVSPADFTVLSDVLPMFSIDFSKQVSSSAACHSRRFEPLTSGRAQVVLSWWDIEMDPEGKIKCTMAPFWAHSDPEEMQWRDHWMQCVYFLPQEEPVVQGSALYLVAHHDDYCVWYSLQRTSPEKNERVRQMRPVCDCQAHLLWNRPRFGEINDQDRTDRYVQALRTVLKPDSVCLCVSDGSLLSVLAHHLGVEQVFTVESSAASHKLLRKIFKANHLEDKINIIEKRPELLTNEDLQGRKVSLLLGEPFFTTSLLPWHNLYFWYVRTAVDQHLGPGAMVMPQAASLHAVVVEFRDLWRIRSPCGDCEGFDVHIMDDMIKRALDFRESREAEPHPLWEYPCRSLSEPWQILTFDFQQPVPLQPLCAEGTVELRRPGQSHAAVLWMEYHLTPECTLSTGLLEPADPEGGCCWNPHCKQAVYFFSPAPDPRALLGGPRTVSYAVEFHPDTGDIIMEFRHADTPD

[6] = target: T3, Histone-arginine methyltransferase CARM1 (Homo sapiens, UniProt Q86X55); assay: Inhibition of PRMT4 (unknown origin)
T3 sequence (Q86X55 whole entry): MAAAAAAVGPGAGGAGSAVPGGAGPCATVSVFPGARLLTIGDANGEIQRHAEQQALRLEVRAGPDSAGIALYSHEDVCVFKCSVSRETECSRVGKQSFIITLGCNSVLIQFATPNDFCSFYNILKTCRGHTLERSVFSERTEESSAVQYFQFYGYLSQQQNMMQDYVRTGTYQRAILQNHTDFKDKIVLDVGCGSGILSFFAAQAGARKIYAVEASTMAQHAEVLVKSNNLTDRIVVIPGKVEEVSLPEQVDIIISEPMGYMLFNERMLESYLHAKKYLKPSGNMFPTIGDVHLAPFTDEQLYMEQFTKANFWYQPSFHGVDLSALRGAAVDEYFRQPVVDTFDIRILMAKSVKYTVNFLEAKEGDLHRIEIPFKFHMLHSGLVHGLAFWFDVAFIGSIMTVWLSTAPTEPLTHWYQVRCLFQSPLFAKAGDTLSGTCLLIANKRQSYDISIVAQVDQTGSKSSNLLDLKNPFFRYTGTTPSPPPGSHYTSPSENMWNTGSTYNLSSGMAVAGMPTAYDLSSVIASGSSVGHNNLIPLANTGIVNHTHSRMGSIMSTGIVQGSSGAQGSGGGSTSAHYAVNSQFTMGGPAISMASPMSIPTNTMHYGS

[7] = target: T1, Protein arginine N-methyltransferase 1; assay: Inhibition of 6His-tagged PRMT1 (11 to 353 residues) (unknown origin) extracted from Escherichia coli BL21 (DE3) cells
[8] = target: T1, Protein arginine N-methyltransferase 1; assay: Inhibition of His-tagged PRMT1 (unknown origin) extracted from Escherichia coli BL21 (DE3) cells

## CC(=O)N(CCO)CC(=O)NCC(=O)N(CCCNC(=N)CCl)CC(=O)NCC(=O)N(CCCCN)CC(=O)NCC(=O)NCC(=O)N(CCCCN)CC(=O)NCC(=O)N(CC(=O)NCC(=O)N(CCCCN)CC(=O)NCC(=O)NCC(=O)N(C)CC(=O)N(CCCCN)CC(N)=O)CC(C)C (Ac-[Gly(N-CH2CH2OH)]G[X1]G[Nlys]GG[Nlys]G[Nleu]G[Nlys]GG[Sar][Nlys]-NH2)
MDA-MB-468
  IC50: > 500 µM
[1]
  IC50: 8.73 µM
HCT-116
  IC50: > 500 µM

## CC(C)CN(CC(=O)NCC(=O)N(CCCCN)CC(=O)NCC(=O)NCC(=O)N(C)CC(=O)N(CCCCN)CC(N)=O)C(=O)CNC(=O)CN(CCCCN)C(=O)CNC(=O)CNC(=O)CN(CCCCN)C(=O)CNC(=O)CN(CCCNC(=N)CCl)C(=O)CNC(=O)CNCCO (H-[Gly(N-CH2CH2OH)]G[X1]G[Nlys]GG[Nlys]G[Nleu]G[Nlys]GG[Sar][Nlys]-NH2)
MDA-MB-468
  IC50: > 500 µM
HCT-116
  IC50: > 500 µM

## CC(=O)N[C@@H](CO)C(=O)NCC(=O)N[C@@H](CCCNC(=N)NCCC[C@H]1O[C@@H](n2cnc3c(N)ncnc32)[C@H](O)[C@@H]1O)C(=O)NCC(=O)N[C@@H](CCCCN)C(=O)NCC(=O)NCC(=O)N[C@@H](CCCCN)C(N)=O (Ac-SG[X2]GKGGK-NH2)
[2]
  IC50: 11 µM
[3]
  IC50: 5.36 µM

## N=C(N)NCCC[C@H](NC(=O)CN)C(=O)N[C@@H](CCCNC(=N)NCCCSC[C@H]1O[C@@H](n2cnc3c(N)ncnc32)[C@H](O)[C@@H]1O)C(N)=O
[4]
  IC50: 0.0004 µM
[5]
  IC50: 0.0004 µM
[3]
  IC50: 5.9 µM
[6]
  IC50: 0.0028 µM

## N=C(NCCCSC[C@H]1O[C@@H](n2cnc3c(N)ncnc32)[C@H](O)[C@@H]1O)NCCC[C@H](N)C(N)=O
[3]
  IC50: 3 µM

## NS(=O)(=O)c1ccc(CCNC/C=C/c2ccccc2)cc1
[7]
  IC50: 26.2 µM

## O=C1Nc2cnc(Nc3ccc(N4CCC(O)CC4)cc3)nc2N2c3ccccc3C[C@@H]12
[8]
  IC50: 0.27 µM

## CC(C)CN(CC(=O)NCC(=O)N(CCCCN)CC(=O)NCC(=O)NCC(=O)N(C)CC(=O)N(CCCCN)CC(N)=O)C(=O)CNC(=O)CN(CCCCN)C(=O)CNC(=O)CNC(=O)CN(CCCCN)C(=O)CNC(=O)CN(CCCNC(=N)N)C(=O)CNC(=O)CNCCO (H-[Gly(N-CH2CH2OH)]G[Gly(N-(CH2)3-guanidino)]G[Nlys]GG[Nlys]G[Nleu]G[Nlys]GG[Sar][Nlys]-NH2)
[3]
  IC50: 396 µM
